Reference: patent US8513224B2, “Crystalline form C of tigecycline dihydrochloride and methods for its preparation” (Sandoz AG, priority 2008, dated 2013)
Structures can show the parent of a compound that is named as a salt.

Tests used:
Assay type in all cases: physicochemical
[1] = Physical stability at elevated temperatures (impurities by HPLC); conditions: for 4-Epi-Tigecycline 7 days at 80° C. / Total impurities 7 days at 80° C. / Stability in words (impurities after storage): stored 7 days at 80° C.; for 4-Epi-Tigecycline 7 days at 80° C. / Total impurities 7 days at 80° C.: in % (unit assumed)
Source text: Tigecycline must be available in a physically stable form as well, in order to avoid degradation and as a consequence the building of undesired byproducts. Table 4 compares the stability data of the different crystalline forms of Tigecycline free base and Tigecycline hydrochloride with these of crystalline form C of Tigecycline dihydrochloride from the present invention.
Therefore crystalline form C of Tigecycline dihydrochloride in essentially pure polymorphic form is more preferred than amorphous Tigecycline dihydrochloride.

physchem = experiment: physchem
Method: The finished dosage form contains lyophilized amorphous Tigecycline respectively Tigecycline hydrochloride. Before lyophilizing, Tigecycline respectively acid addition salts of Tigecycline are dissolved in water, thus water solubility is an important factor to consider.
A UV-vis Lambda 35 spectrophotometer (Perkin-Elmer) was used (λ=347 nm, 1.0 cm quartz cells). Perkin Elmer® UV Win Lab-5.1 software was used.
A saturated solution of Tigecycline, Tigecycline hydrochloride or Tigecycline dihydrochloride in distilled water was prepared and the suspension was stirred at room temperature for 30 minutes with a stirring speed of 1000 U/min. The suspension was filtered through a 0.45 μm filter. Finally the resulting solution was diluted 10000-fold and measured against water at a wavelength of 347 nm.

[2] = Thermodynamical stability (crystal structure after storage); conditions: stored 7 days at 80° C.
[3] = Water content on storage at defined relative humidity; conditions: stored at about 0% relative humidity
Source text: Form C of Tigecycline dihydrochloride is an anhydrous form, containing no water when stored at about 0% relative humidity and containing not more than about 0.8% to 1.7% e.g. when stored at about 50% relative humidity.

Structure (SMILES)	4-Epi-Tigecycline at ambient conditions [1]	Total impurities at ambient conditions [1]	4-Epi-Tigecycline 7 days at 80° C. [1]	Total impurities 7 days at 80° C. [1]	other results
CN(C)c1cc(NC(=O)CNC(C)(C)C)c(O)c2c1C[C@H]1C[C@H]3[C@H](N(C)C)C(O)=C(C(N)=O)C(=O)[C@@]3(O)C(O)=C1C2=O [amorphous (x2HCl), Tigecycline dihydrochloride]	–	–	–	–	4-Epi-Tigecycline at ambient conditions ([1]; dihydrochloride): 4.97%; Total impurities at ambient conditions ([1]; dihydrochloride): 5.05%; 4-Epi-Tigecycline 7 days at 80° C. ([1]; dihydrochloride): 16.42; Total impurities 7 days at 80° C. ([1]; dihydrochloride): 18.82
CN(C)c1cc(NC(=O)CNC(C)(C)C)c(O)c2c1C[C@H]1C[C@H]3[C@H](N(C)C)C(O)=C(C(N)=O)C(=O)[C@@]3(O)C(O)=C1C2=O [WO 2007/127292 II, Tigecycline]	–	–	–	–	4-Epi-Tigecycline at ambient conditions ([1]; listed as WO 2007/127792 II): 0.17%; Total impurities at ambient conditions ([1]; listed as WO 2007/127792 II): 0.24%; 4-Epi-Tigecycline 7 days at 80° C. ([1]; listed as WO 2007/127792 II): 0.38; Total impurities 7 days at 80° C. ([1]; listed as WO 2007/127792 II): 0.91
CN(C)c1cc(NC(=O)CNC(C)(C)C)c(O)c2c1C[C@H]1C[C@H]3[C@H](N(C)C)C(O)=C(C(N)=O)C(=O)[C@@]3(O)C(O)=C1C2=O [B (xHCl), Tigecycline hydrochloride]	–	–	–	–	4-Epi-Tigecycline at ambient conditions ([1]; hydrochloride): 0.93%; Total impurities at ambient conditions ([1]; hydrochloride): 1.91%; 4-Epi-Tigecycline 7 days at 80° C. ([1]; hydrochloride): 1.60; Total impurities 7 days at 80° C. ([1]; hydrochloride): 4.19
CN(C)c1cc(NC(=O)CNC(C)(C)C)c(O)c2c1C[C@H]1C[C@H]3[C@H](N(C)C)C(O)=C(C(N)=O)C(=O)[C@@]3(O)C(O)=C1C2=O [A (xHCl), Tigecycline hydrochloride]	–	–	–	–	Water solubility, Concentration (physchem; 30 min): 503 mg/mL; solubility at 30 min (physchem; water, thermodynamic from solid, Water solubility, Concentration): 503 mg/mL; 4-Epi-Tigecycline at ambient conditions ([1]; hydrochloride): 0.84%; Total impurities at ambient conditions ([1]; hydrochloride): 1.07%; 4-Epi-Tigecycline 7 days at 80° C. ([1]; hydrochloride): 0.89; Total impurities 7 days at 80° C. ([1]; hydrochloride): 1.81
CN(C)c1cc(NC(=O)CNC(C)(C)C)c(O)c2c1C[C@H]1C[C@H]3[C@H](N(C)C)C(O)=C(C(N)=O)C(=O)[C@@]3(O)C(O)=C1C2=O [WO 2006/128150 IV, Tigecycline]	0.23%	0.4%	0.38	0.87	–
CN(C)c1cc(NC(=O)CNC(C)(C)C)c(O)c2c1C[C@H]1C[C@H]3[C@H](N(C)C)C(=O)C(C(N)=O)=C(O)[C@@]3(O)C(=O)C1=C2O [WO 2006/128150 III, Tigecycline]	0.16%	0.16%	2.18	4.46	–
CN(C)c1cc(NC(=O)CNC(C)(C)C)c(O)c2c1C[C@H]1C[C@H]3[C@H](N(C)C)C(=O)C(C(N)=O)=C(O)[C@@]3(O)C(=O)C1=C2O [WO 2008/066935 XII, Tigecycline]	0.15%	0.4%	0.70	4.38	–
CN(C)c1cc(NC(=O)CNC(C)(C)C)c(O)c2c1C[C@H]1C[C@H]3[C@H](N(C)C)C(O)=C(C(N)=O)C(=O)[C@@]3(O)C(O)=C1C2=O [WO 2006/128150 I, Tigecycline]	0.36%	0.75%	2.15	11.20	Stability in words (impurities after storage) [1]: tremendous increase in total impurities
CN(C)c1cc(NC(=O)CNC(C)(C)C)c(O)c2c1C[C@H]1C[C@H]3[C@H](N(C)C)C(O)=C(C(N)=O)C(=O)[C@@]3(O)C(O)=C1C2=O [WO 2008/066935 IX, Tigecycline]	0.15%	0.43%	0.70	2.13	–
CN(C)c1cc(NC(=O)CNC(C)(C)C)c(O)c2c1C[C@H]1C[C@H]3[C@H](N(C)C)C(O)=C(C(N)=O)C(=O)[C@@]3(O)C(O)=C1C2=O [WO 2007/127292 I, Tigecycline]	–	–	–	–	4-Epi-Tigecycline at ambient conditions ([1]; listed as WO 2007/127792 I): 0.34%; Total impurities at ambient conditions ([1]; listed as WO 2007/127792 I): 0.59%; 4-Epi-Tigecycline 7 days at 80° C. ([1]; listed as WO 2007/127792 I): 1.26; Total impurities 7 days at 80° C. ([1]; listed as WO 2007/127792 I): 2.22
CN(C)c1cc(NC(=O)CNC(C)(C)C)c(O)c2c1C[C@H]1C[C@H]3[C@H](N(C)C)C(O)=C(C(N)=O)C(=O)[C@@]3(O)C(O)=C1C2=O [C (x2HCl), Tigecycline dihydrochloride]	0.73%	0.83%	2.40	2.60	Water solubility compared with the other crystalline forms (physchem): highest water solubility; Change of crystal structure on storage [2]: did not change its crystal structure; Water content [3]: no water
CN(C)c1cc(NC(=O)CNC(C)(C)C)c(O)c2c1C[C@H]1C[C@H]3[C@H](N(C)C)C(O)=C(C(N)=O)C(=O)[C@@]3(O)C(O)=C1C2=O [WO 2006/128150 II, Tigecycline]	1.04%	1.6%	10.83	18.44	Stability in words (impurities after storage) [1]: tremendous increase in total impurities
CN(C)c1cc(NC(=O)CNC(C)(C)C)c(O)c2c1C[C@H]1C[C@H]3[C@H](N(C)C)C(O)=C(C(N)=O)C(=O)[C@@]3(O)C(O)=C1C2=O.Cl.Cl [C + 20% amorphous (x2HCl), Tigecycline dihydrochloride]	1.73%	1.81%	4.34	4.88	Stability in words (impurities after storage) [1]: less stable than a pure polymorphic form C
CN(C)c1cc(NC(=O)CNC(C)(C)C)c(O)c2c1C[C@H]1C[C@H]3[C@H](N(C)C)C(O)=C(C(N)=O)C(=O)[C@@]3(O)C(O)=C1C2=O [WO 2006/128150 V, Tigecycline]	< 0.05%	0.22%	0.18	0.37	–
